Laboratory results reported in US5380710A, “Pharmaceutical compositions containing ACTH (1-24) for the therapy of shock conditions and respiratory and cardiocirculatory insufficiences” (priority 1985, dated 1995).
Where a name gives a salt, the structure may show the parent alone.

Test system: severe hypotension induced by bleeding (hypovolemic shock), intact rats
Test: Hypovolemic shock by bleeding in intact rats: mean arterial pressure and survival
Assay type: in vivo, Wistar rats
Description: Intact and adrenalectomized female Wistar rats (Nossan, Correzzano, Milano, Italy) weighing 250 to 300 g, and intact male Beagle dogs (S. Morini, S. Polo d'Enza, Reggio Emilia, Italy) weighing 10 to 12 kg were used. Following anesthetization and heparinization a common carotid artery and an iliac vein were cannulated in rats, while in dogs a femoral artery and vein were used. Arterial blood pressure was recorded by means of a pressure transducer (Statham P23 Db) connected to a polygraph (Battaglia-Rangoni, Bologna, Italy). In some rats, trachea was cannulated and respiration was recorded by means of a transducer (Statham 10272) connected to the same polygraph. Hypovolemic shock was produced by intermittently withdrawing blood from the venous catheter until mean arterial pressure fell to 16-30 mm Hg. In rats, the volume of blood removed was 2-2.5 ml per 100 g of body weight and approximated to, or even exceeded, 50% of the estimated total blood volume; in dogs, the volume of blood removed was 50-60 ml per kg of body weight. Following bleeding and mean blood pressure stabilization in the range of 16-30 mm Hg, animals were given intravenous bolus of either ACTH (1-24) or naloxone.HCl.

SMILES: C=CCN1CC[C@]23c4c5ccc(O)c4O[C@H]2C(=O)CC[C@@]3(O)[C@H]1C5 [Naloxone.HCl, naloxone.HCl]
- Mean arterial pressure before bleeding (intact rats (5), Naloxone.HCl 1 μg/kg i.v. group, baseline before treatment, m ± S.E.): 64,60 ± 4,70 mm Hg
- Mean arterial pressure after bleeding (intact rats (5), Naloxone.HCl 1 μg/kg i.v. group, before treatment, m ± S.E.): 22,00 ± 3,15 mm Hg
- No. of deaths 60 min. after treatment (intact rats (5), bled, 1 μg/kg i.v.): 0
- Mean arterial pressure 15-30 min. after treatment (intact rats (5), bled, 1 μg/kg i.v., m ± S.E.): 58,20 ± 6,12 mm Hg
- Effect on blood pressure after bleeding (rats, bled, 1 mg/kg i.v., within 30 minutes): completely restored blood pressure
